Test results published in ChEMBL document CHEMBL1152581, “Delta-di-carboxybutyl phosphoramidate of 2'-deoxycytidine-5'-monophosphate as substrate for DNA polymerization by HIV-1 reverse transcriptase” (Bioorg Med Chem, 2009).
The source made the active and inactive calls. The rule behind the calls is not given here.

Columns and labels:
[1] = molecular target: Human immunodeficiency virus type 1 reverse transcriptase (Human immunodeficiency virus 1) (UniProt Q72547); assay: Activity at HIV1 reverse transcriptase assessed as elongation of DNA primer after 60 mins at 500 uM by single nucleotide incorporation assay
[2] = molecular target: Human immunodeficiency virus type 1 reverse transcriptase (Human immunodeficiency virus 1) (UniProt Q72547); assay: Activity at HIV1 reverse transcriptase assessed as elongation of DNA primer up to 120 mins at 500 uM by single nucleotide incorporation assay
[3] = molecular target: Human immunodeficiency virus type 1 reverse transcriptase (Human immunodeficiency virus 1) (UniProt Q72547); assay: Activity at HIV1 reverse transcriptase assessed as elongation of DNA primer up to 120 mins at 1 mM by single nucleotide incorporation assay
[4] = molecular target: Human immunodeficiency virus type 1 reverse transcriptase (Human immunodeficiency virus 1) (UniProt Q72547); assay: Activity at HIV1 reverse transcriptase assessed as elongation of DNA primer after 60 mins by single nucleotide incorporation assay

| SMILES | Activity [1] | Activity [2] | Activity [3] | Activity [4] |
| --- | --- | --- | --- | --- |
| Nc1ncnc2c1ncn2[C@H]1C[C@H](O)[C@@H](COP(=O)(O)N[C@@H](CC(=O)O)C(=O)O)O1 | 82% | – | – | – |
| Nc1ccn([C@H]2C[C@H](O)[C@@H](COP(=O)(O)NCCCC(C(=O)O)C(=O)O)O2)c(=O)n1 | 54% | 60% | 60% | – |
| Nc1ccn([C@@H]2O[C@H](COP(=O)(O)NCCCC(C(=O)O)C(=O)O)C[C@H]2O)c(=O)n1 | – | – | – | inactive |
